Reference: patent publication US20240254119A1 (THIRD HARMONIC BIO, INC., priority 2022, published 2024)
pIC50: −log10 of the molar value.

How the values were obtained:
Kinetic solubility assay = type: physicochemical; settings: kinetic solubility, 50 mM PB (pH 7.4), shaken 24 hours at RT
Procedure: 10 μL of 10 mM in DMSO of test article and control compounds was added into lower chambers of whatman miniuniprep vials, respectively. 490 μL of 50 mM PB (pH 7.4) was then added into lower chambers of the whatman miniuniprep vials, respectively. […] Miniuniprep vials were shaken for 24 hours at RT at the speed of 800 rpm, centrifuged 20 minutes (eg. 4000 rpm) and the filtrates were analyzed by UPLC-UV/HPLC-UV system to calculate the concentration with standard curve.
Filter Membrane: Miniuniprep (PTFE Filter Media with Polypropylene Housing) Cat. No. UN203NPUORG, GE Halthcare Whatman.

wtKIT = molecular target: T1, wtKIT (Homo sapiens, UniProt P10721); test: HTRF biochemical assay, wtKIT (phosphorylation of a peptide substrate); settings: Table 4
T1 construct: 1888289AM in the reaction mixtures
How it was run: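 wtKIT (5.0 nM) phosphorylating 1 µM FAM-labelled peptide with 400 µM ATP and 10 mM MnCl2 in 100 mM HEPES pH 7.5, 1% DMSO, 3 h at 25 °C. EDTA quench; phosphopeptide detected with anti-phosphotyrosine antibody by HTRF. Enzyme titrated for 10-20% substrate conversion.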

T1 sequence (P10721 26-976): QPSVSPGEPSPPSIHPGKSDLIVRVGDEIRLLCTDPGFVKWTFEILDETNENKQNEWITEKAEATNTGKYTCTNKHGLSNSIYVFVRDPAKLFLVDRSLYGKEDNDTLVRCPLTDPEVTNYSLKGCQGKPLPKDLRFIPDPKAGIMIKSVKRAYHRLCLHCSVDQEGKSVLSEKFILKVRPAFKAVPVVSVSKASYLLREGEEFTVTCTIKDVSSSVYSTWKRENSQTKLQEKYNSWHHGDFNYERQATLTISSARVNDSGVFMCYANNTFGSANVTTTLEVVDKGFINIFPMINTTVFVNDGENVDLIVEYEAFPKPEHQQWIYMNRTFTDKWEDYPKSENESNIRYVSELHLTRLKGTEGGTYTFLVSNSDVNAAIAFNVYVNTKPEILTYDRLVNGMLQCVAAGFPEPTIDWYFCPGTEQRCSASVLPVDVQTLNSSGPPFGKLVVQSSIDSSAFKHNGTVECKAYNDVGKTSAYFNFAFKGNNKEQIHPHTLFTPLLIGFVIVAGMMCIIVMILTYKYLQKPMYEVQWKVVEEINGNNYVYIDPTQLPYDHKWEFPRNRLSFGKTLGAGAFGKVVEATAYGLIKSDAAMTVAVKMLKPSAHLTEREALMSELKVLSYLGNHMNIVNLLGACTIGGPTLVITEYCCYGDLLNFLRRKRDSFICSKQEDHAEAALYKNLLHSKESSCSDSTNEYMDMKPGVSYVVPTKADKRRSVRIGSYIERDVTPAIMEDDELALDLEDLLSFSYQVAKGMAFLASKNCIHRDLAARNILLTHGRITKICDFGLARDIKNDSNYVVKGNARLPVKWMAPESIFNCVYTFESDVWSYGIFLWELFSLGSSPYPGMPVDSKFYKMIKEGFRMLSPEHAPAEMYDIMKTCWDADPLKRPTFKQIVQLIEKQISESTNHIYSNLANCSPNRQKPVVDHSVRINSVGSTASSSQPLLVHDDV

Structure (SMILES) | Solubility (μM) (Kinetic solubility assay) | pIC50 (wtKIT)
O=C(Nc1cccc(-c2noc(C3CC3F)n2)c1F)c1cnc2cc(COCCO)ccn12 (centres unmarked) [I-57] | **** (a solubility less than or equal to 2 μM) | –
Cc1ccc(-c2noc(C3COC3)n2)cc1NC(=O)c1cnc2cc(C(C)(F)F)ccn12 [I-43] | **** (a solubility less than or equal to 2 μM) | –
COc1ccn2c(C(=O)Nc3cccc(-c4noc(CC5CC5(F)F)n4)c3F)cnc2c1 (single isomer, unassigned) [I-54] | **** (a solubility less than or equal to 2 μM) | –
Cc1cn2c(C(=O)Nc3cc(-c4noc([C@H]5C[C@@H]5F)n4)ccc3C)cnc2cc1C#N [I-26] | **** (a solubility less than or equal to 2 μM) | –
Cc1noc(-c2ccc3ncc(C(=O)Nc4cc(-c5noc([C@H]6C[C@@H]6F)n5)ccc4C)n3c2)n1 [I-2] | **** (a solubility less than or equal to 2 μM) | –
O=C(Nc1cc(-c2noc(CC(O)C(F)F)n2)ccc1Cl)c1cnc2ccccn12 (single isomer, unassigned) [I-61] | **** (a solubility less than or equal to 2 μM) | –
Cc1ccc(-c2noc([C@H]3C[C@@H]3F)n2)cc1NC(=O)c1cnc2cc3c(cn12)COC3 [I-28] | **** (a solubility less than or equal to 2 μM) | –
COc1cc2ncc(C(=O)Nc3cc(-c4noc([C@H]5C[C@@H]5F)n4)ccc3C)n2cc1F [I-27] | **** (a solubility less than or equal to 2 μM) | –
Cc1ccc(-c2noc(C3COC3)n2)cc1NC(=O)c1cnc2cc(OC(F)(F)F)ccn12 [I-24] | **** (a solubility less than or equal to 2 μM) | –
Cc1ccc(-c2noc([C@H]3C[C@@H]3F)n2)cc1NC(=O)c1cnc2cc(N3CCCC3=O)ccn12 [I-14] | **** (a solubility less than or equal to 2 μM) | –
Cc1ccc(-c2noc([C@H]3CC4(CC4)CN3)n2)cc1NC(=O)c1cnc2ccccn12 [I-231] | ** (a solubility greater than 10 μM and less than or equal to 50 μM) | –
COc1ccn2c(C(=O)Nc3cc(-c4nc(C)no4)ccc3Cl)cnc2c1 [I-37] | **** (a solubility less than or equal to 2 μM) | –
COc1ccn2c(C(=O)Nc3cc(-c4noc(C5COC5)n4)ccc3Cl)cnc2c1 [I-47] | **** (a solubility less than or equal to 2 μM) | –
COc1cc2ncc(C(=O)Nc3cc(-c4noc([C@H]5C[C@@H]5F)n4)ccc3C)n2cc1C(F)(F)F [I-41] | **** (a solubility less than or equal to 2 μM) | –
O=C(Nc1cc(-c2noc(CC(O)C(F)F)n2)ccc1Cl)c1cnc2ccccn12 (single isomer, unassigned) [I-62] | **** (a solubility less than or equal to 2 μM) | –
O=C(Nc1cc(-c2noc(C3CC3F)n2)ccc1Cl)c1cnc2cc(COCCO)ccn12 (centres unmarked) [I-56] | **** (a solubility less than or equal to 2 μM) | –
CC(=O)NCc1ccc2ncc(C(=O)Nc3cc(-c4noc([C@H]5C[C@@H]5F)n4)ccc3C)n2c1 [I-9] | **** (a solubility less than or equal to 2 μM) | –
Cc1ccc(-c2noc([C@H]3C[C@@H]3F)n2)cc1NC(=O)c1cnc2ccc(N3CCCC3=O)cn12 [I-4] | **** (a solubility less than or equal to 2 μM) | –
Cc1ccc(-c2noc(C3CC3F)n2)cc1NC(=O)c1cnc2cc(COC(C)(C)CO)ccn12 (centres unmarked) [I-64] | ** (a solubility greater than 10 μM and less than or equal to 50 μM) | –
Cc1ccc(-c2noc([C@H]3C[C@@H]3F)n2)cc1NC(=O)c1cnc2cc(CNS(=O)(=O)C3CC3)ccn12 [I-10] | **** (a solubility less than or equal to 2 μM) | –
Cc1ccc(-c2noc([C@H]3C[C@@H]3F)n2)cc1NC(=O)c1cnc2ccc(CC#N)cn12 [I-15] | **** (a solubility less than or equal to 2 μM) | –
COC(=O)NCc1ccn2c(C(=O)Nc3cc(-c4noc([C@H]5C[C@@H]5F)n4)ccc3C)cnc2c1 [I-30] | **** (a solubility less than or equal to 2 μM) | –
Cc1ccc(-c2noc([C@H]3C[C@@H]3F)n2)cc1NC(=O)c1cnc2cc(CF)ccn12 [I-49] | **** (a solubility less than or equal to 2 μM) | –
Cc1ccc(-c2noc([C@H]3C[C@@H]3F)n2)cc1NC(=O)c1cnc2cc(CNC(=O)CO)ccn12 [I-7] | **** (a solubility less than or equal to 2 μM) | –
Cc1ccc(-c2noc(C3COC3)n2)cc1NC(=O)c1cnn2cc(C(F)F)ccc12 [I-20] | **** (a solubility less than or equal to 2 μM) | –

Structure (SMILES) | Solubility (μM) (Kinetic solubility assay) | pIC50 (wtKIT)
Cc1ccc(-c2noc(C3COC3)n2)cc1NC(=O)c1cnc2cc(C(F)F)ccn12 [I-52] | **** (a solubility less than or equal to 2 μM) | –
Cc1ccc(-c2noc([C@H]3C[C@@H]3F)n2)cc1NC(=O)c1cnc2ccc(CS(C)(=O)=O)cn12 [I-12] | **** (a solubility less than or equal to 2 μM) | –
CC(=O)NCc1ccn2c(C(=O)Nc3cc(-c4noc([C@H]5C[C@@H]5F)n4)ccc3C)cnc2c1 [I-32] | **** (a solubility less than or equal to 2 μM) | –
Cc1ccc(-c2noc([C@H]3C[C@@H]3F)n2)cc1NC(=O)c1cnc2cc(CC#N)ccn12 [I-16] | **** (a solubility less than or equal to 2 μM) | –
Cc1ccc(-c2noc([C@H]3C[C@@H]3F)n2)cc1NC(=O)c1cnn2cc(OC(F)(F)F)ccc12 [I-19] | **** (a solubility less than or equal to 2 μM) | –
COc1cc2ncc(C(=O)Nc3cc(-c4noc([C@H]5C[C@@H]5F)n4)ccc3C)n2cc1C [I-42] | **** (a solubility less than or equal to 2 μM) | –
Cc1ccc(-c2noc(C3COC3)n2)cc1NC(=O)c1cnc2cc(CC(F)(F)F)ccn12 [I-36] | **** (a solubility less than or equal to 2 μM) | –
Cc1ccc(-c2noc(CC(O)C(F)(F)F)n2)cc1NC(=O)c1cnc2ccccn12 (single isomer, unassigned) [I-68] | **** (a solubility less than or equal to 2 μM) | –
Cc1ccc(-c2noc(C3CC3F)n2)cc1NC(=O)c1cnc2cc(CNC(=O)C3CCCO3)ccn12 (mixture of isomers) [I-33] | *** (a solubility greater than 2 μM and less than or equal to 10 μM) | –
COc1ccc2c(C(=O)Nc3cc(-c4noc([C@H]5C[C@@H]5F)n4)ccc3C)cnn2c1 [I-21] | **** (a solubility less than or equal to 2 μM) | –
Cc1ccc(-c2noc([C@H]3C[C@@H]3F)n2)cc1NC(=O)c1cnc2cc(CNC(=O)C(C)(C)O)ccn12 [I-31] | **** (a solubility less than or equal to 2 μM) | –
Cc1ccc(-c2noc(C3CC3F)n2)cc1NC(=O)c1cnc2cc(COC(C)CO)ccn12 (centres unmarked) [I-59] | * (a solubility greater than 50 μM) | –
Cc1ccc(-c2noc(C3CC3F)n2)cc1NC(=O)c1cnn2cccc(C(F)F)c12 (centres unmarked) [I-60] | **** (a solubility less than or equal to 2 μM) | –
Cc1ccc(-c2noc([C@H]3C[C@@H]3F)n2)cc1NC(=O)c1cnc2ccc(CNS(=O)(=O)C3CC3)cn12 [I-5] | **** (a solubility less than or equal to 2 μM) | –
Cc1ccc(-c2noc([C@H]3C[C@@H]3F)n2)cc1NC(=O)c1cnc2cc(C(C)(F)F)ccn12 [I-44] | **** (a solubility less than or equal to 2 μM) | –
COc1cc2ncc(C(=O)Nc3cc(-c4noc([C@H]5C[C@@H]5F)n4)ccc3C)n2cc1C(F)F [I-29] | **** (a solubility less than or equal to 2 μM) | –
Cc1ccc(-c2noc(CC(O)C(F)F)n2)cc1NC(=O)c1cnc2cc(C(F)F)ccn12 (single isomer, unassigned) [I-70] | **** (a solubility less than or equal to 2 μM) | –
Cc1ccc(-c2noc([C@H]3C[C@@H]3F)n2)cc1NC(=O)c1cnc2ccc(CNC(=O)CO)cn12 [I-8] | **** (a solubility less than or equal to 2 μM) | –
COc1ccn2c(C(=O)Nc3cc(-c4noc([C@H]5C[C@@H]5F)n4)ccc3C)cnc2c1F [I-34] | **** (a solubility less than or equal to 2 μM) | –
Cc1ccc(-c2noc(C3CC3(F)F)n2)cc1NC(=O)c1cnc2cc(COCCO)ccn12 (centres unmarked) [I-58] | ** (a solubility greater than 10 μM and less than or equal to 50 μM) | –
Cc1ccc(-c2noc([C@H]3C[C@@H]3F)n2)cc1NC(=O)c1cnc2cc(CNS(C)(=O)=O)ccn12 [I-17] | **** (a solubility less than or equal to 2 μM) | –
Cc1ccc(-c2noc([C@H]3C[C@@H]3F)n2)cc1NC(=O)c1cnc2cc(C(=O)N3CCCC3)ccn12 [I-3] | *** (a solubility greater than 2 μM and less than or equal to 10 μM) | –
Cc1ccc(-c2noc(CC(O)C(F)F)n2)cc1NC(=O)c1cnc2cc(OC(F)(F)F)ccn12 (single isomer, unassigned) [I-13] | **** (a solubility less than or equal to 2 μM) | –
Cc1ccc(-c2noc(C3COC3)n2)cc1NC(=O)c1cnc2cc(CF)ccn12 [I-48] | **** (a solubility less than or equal to 2 μM) | –
Cc1ccc(-c2noc([C@H]3C[C@@H]3F)n2)cc1NC(=O)c1cnc2cc(C(C)(C)O)ccn12 [Compound I-456] | – | ≥ 7.30
